Experimental data from article PMC6934184, “Selective DNA-PKcs inhibition extends the therapeutic index of localized radiotherapy and chemotherapy” (The Journal of Clinical Investigation, 2019).

Target: T1, MARK3 (Homo sapiens, UniProt P27448)
T1 construct: purchased Thermo Fisher Scientific (Life Technologies) SelectScreen
Test: SelectScreen Z'LYTE
Assay type: biochemical
Method in brief: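 Percent values come from Thermo SelectScreen profiling of NU5455, combining activity and binding assays. CSF1R was run in Z'LYTE format at Km app ATP, and CAMK1 in Adapta format with ATP listed at 10.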

T1 sequence (P27448 whole entry): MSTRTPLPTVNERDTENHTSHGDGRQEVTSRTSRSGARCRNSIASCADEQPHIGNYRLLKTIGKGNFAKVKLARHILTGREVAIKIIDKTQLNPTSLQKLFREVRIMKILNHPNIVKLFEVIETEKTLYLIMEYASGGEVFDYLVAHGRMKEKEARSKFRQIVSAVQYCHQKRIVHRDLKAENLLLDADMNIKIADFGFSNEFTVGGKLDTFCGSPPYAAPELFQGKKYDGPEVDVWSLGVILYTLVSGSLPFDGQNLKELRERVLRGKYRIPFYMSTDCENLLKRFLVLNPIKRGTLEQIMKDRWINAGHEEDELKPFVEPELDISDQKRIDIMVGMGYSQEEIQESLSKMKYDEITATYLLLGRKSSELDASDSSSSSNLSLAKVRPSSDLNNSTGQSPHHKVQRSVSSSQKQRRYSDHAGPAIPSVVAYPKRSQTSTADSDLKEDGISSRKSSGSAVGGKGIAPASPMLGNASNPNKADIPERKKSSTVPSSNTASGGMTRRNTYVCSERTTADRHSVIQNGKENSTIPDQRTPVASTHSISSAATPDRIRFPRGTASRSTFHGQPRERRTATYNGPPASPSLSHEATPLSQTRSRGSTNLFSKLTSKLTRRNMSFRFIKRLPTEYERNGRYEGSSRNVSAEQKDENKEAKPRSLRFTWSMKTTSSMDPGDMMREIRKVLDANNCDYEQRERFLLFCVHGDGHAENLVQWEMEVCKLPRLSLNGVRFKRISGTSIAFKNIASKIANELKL

## CN(C(=O)CN1CCOCC1)c1ccc2sc3c(-c4cccc5c(=O)cc(N6CC7CCC(C6)O7)oc45)cccc3c2c1 [NU5455]
  inhibition at 1 µM: 11.4%
